{"source": "patent US8192962B2", "about": "“Processes for detecting toxic substances” (Daikin Industries, Ltd., priority 2001, dated 2012)", "tested_on": "Stress protein genes", "test": "DNA chip mRNA expression in yeast, stress protein genes (Table 6)", "assay_type": "cell-based, Saccharomyces cerevisiae S288C", "method": "Yeast (Saccharomyces cerevisiae S288C (α SUC2mal mel gap2 CUP1)) were incubated at 25° C. on YPD medium (yeast extract 1%, polypepton 2%, glucose 2%). One of toxic chemical substances was added to the cells at logarithmic growth phase, and the cells were further incubated for two hours. Cells were cultured without any chemical substance in the same condition, and were used as control. Concentrations of the chemical substances were defined to inhibit the growth of the yeast but not lead to death.\nAfter completion of the incubation, the culture was centrifuged to collect the cells. To the cells, sodium acetate buffer (50 mM sodium acetate, 10 mM EDTA, 1% SDS) was added, and the mixture was shaken at 65° C. for five minutes, followed by returning to room temperature, and obtaining the supernatant, of which the procedures were repeated two times. To the supernatant, ½ amount of a solution of phenol/chloroform was added, and the mixture was centrifuged to give a supernatant, which was added with an equal amount of chloroform, and the mixture was centrifuged to give a supernatant. To the supernatant, an equal amount of isopropanol containing 0.3 M sodium acetate was added, and the mixture was allowed to stand at room temperature for 30 minutes, after which the mixture was centrifuged to give a sediment of the whole RNAs. Seventy % ethanol was added to the sediment, and the mixture was again centrifuged to give a sediment, which was then dried and dissolved in water. mRNA was isolated from the whole RNAs as followings. In view of the fact that a poly A chain is attached to the 3′ terminus of mRNA, a polynucleotide having a poly T structure which was immobilized on the surface of latex beads was used to trap the mRNA, and then the mRNA was washed and eluted with spine column (Oligotex-dT30<Super>mRNA Purification Kit, Takara). Reverse transcription of the mRNA was conducted with a reverse transcriptase (Super Script II Reverse Transcriptase; catalogue No. 18064-014, GibcoBRL) using fluorescence-labeled nucleotides to give cDNAs that were introduced with Cy3-dUTP or Cy5-dUTP during the reverse transcription.\nThe labeled cDNAs were dissolved in TE buffer (10mM Tris-HCl/1 mM EDTA, pH8.0), and the solution was dropped on the DNA chip containing the whole genes of yeast (DNA Chip Research Inc. Japan) so that the cDNAs were hybridized on the DNA chip at 65° C. for over 12 hours. The fluoresces intensity of the DNA chip was read with a scanner, and the ratio relative to the fluorescence intensity resulting from the absence of chemical substance was estimated as the following, which is shown in Tables 1 to 9: […]"}
{"smiles": "[Cl][Hg][Cl]", "note": "[(3), HgCl2]", "values": [{"measurement": "The level of expressed mRNA in the presence of chemical substance/The level of expressed mRNA in the absence of chemical substance", "setting": "yeast gene YAL005C", "result": 7.0}, {"measurement": "The level of expressed mRNA in the presence of chemical substance/The level of expressed mRNA in the absence of chemical substance", "setting": "yeast gene YAL015C", "result": 1.7}, {"measurement": "The level of expressed mRNA in the presence of chemical substance/The level of expressed mRNA in the absence of chemical substance", "setting": "yeast gene YBL075C", "result": 3.1}, {"measurement": "The level of expressed mRNA in the presence of chemical substance/The level of expressed mRNA in the absence of chemical substance", "setting": "yeast gene YBL093C", "result": 0.4}, {"measurement": "The level of expressed mRNA in the presence of chemical substance/The level of expressed mRNA in the absence of chemical substance", "setting": "yeast gene YBR044C", "result": 0.7}, {"measurement": "The level of expressed mRNA in the presence of chemical substance/The level of expressed mRNA in the absence of chemical substance", "setting": "yeast gene YBR054W", "result": 5.4}, {"measurement": "The level of expressed mRNA in the presence of chemical substance/The level of expressed mRNA in the absence of chemical substance", "setting": "yeast gene YBR067C", "result": 2.8}, {"measurement": "The level of expressed mRNA in the presence of chemical substance/The level of expressed mRNA in the absence of chemical substance", "setting": "yeast gene YBR072W", "result": 18.4}, {"measurement": "The level of expressed mRNA in the presence of chemical substance/The level of expressed mRNA in the absence of chemical substance", "setting": "yeast gene YBR126C", "result": 5.6}, {"measurement": "The level of expressed mRNA in the presence of chemical substance/The level of expressed mRNA in the absence of chemical substance", "setting": "yeast gene YBR169C", "result": 3.9}, {"measurement": "The level of expressed mRNA in the presence of chemical substance/The level of expressed mRNA in the absence of chemical substance", "setting": "yeast gene YCL035C", "result": 1.5}, {"measurement": "The level of expressed mRNA in the presence of chemical substance/The level of expressed mRNA in the absence of chemical substance", "setting": "yeast gene YCR021C", "result": 4.2}, {"measurement": "The level of expressed mRNA in the presence of chemical substance/The level of expressed mRNA in the absence of chemical substance", "setting": "yeast gene YCR060W", "result": 0.9}, {"measurement": "The level of expressed mRNA in the presence of chemical substance/The level of expressed mRNA in the absence of chemical substance", "setting": "yeast gene YCR083W", "result": 1.5}, {"measurement": "The level of expressed mRNA in the presence of chemical substance/The level of expressed mRNA in the absence of chemical substance", "setting": "yeast gene YDL022W", "result": 6.9}, {"measurement": "The level of expressed mRNA in the presence of chemical substance/The level of expressed mRNA in the absence of chemical substance", "setting": "yeast gene YDL025C", "result": 3.5}, {"measurement": "The level of expressed mRNA in the presence of chemical substance/The level of expressed mRNA in the absence of chemical substance", "setting": "yeast gene YDR033W", "result": 4.6}, {"measurement": "The level of expressed mRNA in the presence of chemical substance/The level of expressed mRNA in the absence of chemical substance", "setting": "yeast gene YDR077W", "result": 3.5}, {"measurement": "The level of expressed mRNA in the presence of chemical substance/The level of expressed mRNA in the absence of chemical substance", "setting": "yeast gene YDR098C", "result": 1.0}, {"measurement": "The level of expressed mRNA in the presence of chemical substance/The level of expressed mRNA in the absence of chemical substance", "setting": "yeast gene YDR155C", "result": 3.2}, {"measurement": "The level of expressed mRNA in the presence of chemical substance/The level of expressed mRNA in the absence of chemical substance", "setting": "yeast gene YDR258C", "result": 2.8}, {"measurement": "The level of expressed mRNA in the presence of chemical substance/The level of expressed mRNA in the absence of chemical substance", "setting": "yeast gene YDR293C", "result": 1.2}, {"measurement": "The level of expressed mRNA in the presence of chemical substance/The level of expressed mRNA in the absence of chemical substance", "setting": "yeast gene YDR436W", "result": 1.1}, {"measurement": "The level of expressed mRNA in the presence of chemical substance/The level of expressed mRNA in the absence of chemical substance", "setting": "yeast gene YDR513W", "result": 2.3}, {"measurement": "The level of expressed mRNA in the presence of chemical substance/The level of expressed mRNA in the absence of chemical substance", "setting": "yeast gene YDR519W", "result": 1.7}, {"measurement": "The level of expressed mRNA in the presence of chemical substance/The level of expressed mRNA in the absence of chemical substance", "setting": "yeast gene YEL030W", "result": 1.9}, {"measurement": "The level of expressed mRNA in the presence of chemical substance/The level of expressed mRNA in the absence of chemical substance", "setting": "yeast gene YEL039C", "result": 1.3}, {"measurement": "The level of expressed mRNA in the presence of chemical substance/The level of expressed mRNA in the absence of chemical substance", "setting": "yeast gene YER042W", "result": 3.1}, {"measurement": "The level of expressed mRNA in the presence of chemical substance/The level of expressed mRNA in the absence of chemical substance", "setting": "yeast gene YER057C", "result": 3.0}, {"measurement": "The level of expressed mRNA in the presence of chemical substance/The level of expressed mRNA in the absence of chemical substance", "setting": "yeast gene YER103W", "result": 5.2}, {"measurement": "The level of expressed mRNA in the presence of chemical substance/The level of expressed mRNA in the absence of chemical substance", "setting": "yeast gene YER125W", "result": 1.5}, {"measurement": "The level of expressed mRNA in the presence of chemical substance/The level of expressed mRNA in the absence of chemical substance", "setting": "yeast gene YFL014W", "result": 5.7}, {"measurement": "The level of expressed mRNA in the presence of chemical substance/The level of expressed mRNA in the absence of chemical substance", "setting": "yeast gene YFL016C", "result": 1.6}, {"measurement": "The level of expressed mRNA in the presence of chemical substance/The level of expressed mRNA in the absence of chemical substance", "setting": "yeast gene YFL020C", "result": 1.9}, {"measurement": "The level of expressed mRNA in the presence of chemical substance/The level of expressed mRNA in the absence of chemical substance", "setting": "yeast gene YFR052W", "result": 1.3}, {"measurement": "The level of expressed mRNA in the presence of chemical substance/The level of expressed mRNA in the absence of chemical substance", "setting": "yeast gene YGL073W", "result": 0.9}, {"measurement": "The level of expressed mRNA in the presence of chemical substance/The level of expressed mRNA in the absence of chemical substance", "setting": "yeast gene YGL115W", "result": 1.2}, {"measurement": "The level of expressed mRNA in the presence of chemical substance/The level of expressed mRNA in the absence of chemical substance", "setting": "yeast gene YGL181W", "result": 1.2}, {"measurement": "The level of expressed mRNA in the presence of chemical substance/The level of expressed mRNA in the absence of chemical substance", "setting": "yeast gene YGR088W", "result": 7.7}, {"measurement": "The level of expressed mRNA in the presence of chemical substance/The level of expressed mRNA in the absence of chemical substance", "setting": "yeast gene YHL028W", "result": 1.4}, {"measurement": "The level of expressed mRNA in the presence of chemical substance/The level of expressed mRNA in the absence of chemical substance", "setting": "yeast gene YHL046C", "result": 2.1}, {"measurement": "The level of expressed mRNA in the presence of chemical substance/The level of expressed mRNA in the absence of chemical substance", "setting": "yeast gene YHR030C", "result": 0.6}, {"measurement": "The level of expressed mRNA in the presence of chemical substance/The level of expressed mRNA in the absence of chemical substance", "setting": "yeast gene YHR057C", "result": 0.7}, {"measurement": "The level of expressed mRNA in the presence of chemical substance/The level of expressed mRNA in the absence of chemical substance", "setting": "yeast gene YHR104W", "result": 15.7}, {"measurement": "The level of expressed mRNA in the presence of chemical substance/The level of expressed mRNA in the absence of chemical substance", "setting": "yeast gene YIL011W", "result": 3.9}]}
